Counter-ions that a name gives are not always drawn. Like-named read-outs stand apart in the source and are kept apart here.
Target: T1, human β3 adrenergic receptor (Homo sapiens, UniProt P13945)
T1 construct: expressed in transfected cells; host or cells: Chinese hamster ovary (CHO) cells, stably transfected
Experiment: Beta-3 agonist in vitro functional assay: cAMP production (LANCE TR-FRET) in CHO cells stably transfected with the cloned β3 receptor
Format: cell-based
Outline: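 CHO cells stably expressing the cloned receptor, in HEPES-buffered HBSS with BSA and 0.6 mM IBMX, 6,000 cells/well, exposed to compound for 30 min at RT. cAMP read by LANCE TR-FRET against a cAMP standard curve. Isoproterenol defines maximal stimulation.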

[1] = Table 8, Beta-3 agonist in vitro functional assay, read-out: Human β3 agonist functional activity
[2] = Table 4, cAMP, CHO cells, read-out: Human β3 agonist functional activity
[3] = Table 5, cAMP, CHO cells, read-out: Human β3 agonist functional activity
[4] = Table 10, Beta-3 agonist in vitro functional assay, read-out: Human β3 agonist functional activity
[5] = given as a range, cAMP, CHO cells, read-out: human β3 functional activity
[6] = Table 9, Beta-3 agonist in vitro functional assay, read-out: Human β3 agonist functional activity
[7] = Table 11, cAMP, CHO cells, read-out: Human β3 agonist functional activity
[8] = Table 12, human β3 functional activity given as ranges, read-out: Human β3 agonist functional activity

T1 sequence (P13945 whole entry): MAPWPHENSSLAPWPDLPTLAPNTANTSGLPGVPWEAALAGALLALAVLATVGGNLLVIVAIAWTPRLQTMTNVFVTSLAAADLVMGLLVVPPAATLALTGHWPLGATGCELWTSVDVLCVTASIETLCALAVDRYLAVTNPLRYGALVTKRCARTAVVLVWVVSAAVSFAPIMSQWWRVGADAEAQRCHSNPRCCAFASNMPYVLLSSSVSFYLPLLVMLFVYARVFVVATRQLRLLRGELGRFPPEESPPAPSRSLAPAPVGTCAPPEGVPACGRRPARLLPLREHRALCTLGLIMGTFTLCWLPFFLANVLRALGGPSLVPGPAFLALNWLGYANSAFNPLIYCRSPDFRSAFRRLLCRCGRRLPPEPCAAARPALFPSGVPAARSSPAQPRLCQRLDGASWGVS

O=C(c1ccc(C[C@@H]2CC[C@H]([C@H](O)c3ccccc3)N2)cc1)N1CCC2(CC1)OCC[S+]2[O-] (some centres unmarked) [Example 304]
EC50 [1]: 100 to 999 nM

O=C(c1ccc(C[C@@H]2CC[C@H]([C@H](O)c3ccccc3)N2)cc1)N1CCC(C(=O)O)(c2ccccc2)CC1 [Example 241]
EC50 [1]: 100 to 999 nM

O=C1NC(=O)C2(CCN(C(=O)c3ccc(C[C@@H]4CC[C@H]([C@H](O)c5ccccc5)N4)cc3)CC2)N1 [Example 267]
EC50 [1]: 10 to 99.9 nM

O=C(c1ccc(C[C@@H]2CC[C@H]([C@H](O)c3ccccc3)N2)cc1)N1CCc2onc(O)c2C1 [Example 53]
EC50 [2]: 999 to 3000 nM

O=C(c1ccc(C[C@@H]2CC[C@H]([C@H](O)c3ccccc3)N2)cc1)N1CCC(S(=O)(=O)c2ccc(F)cc2)CC1 [Example 128]
EC50 [3]: 10 to 99.9 nM

CC(C(=O)N1CCCC2(CCO2)C1)N1CCN(C(=O)c2ccc(C[C@@H]3CC[C@H]([C@H](O)c4ccccc4)N3)cc2)CC1 (some centres unmarked) [Example 495]
EC50 [4]: 10 to 99.9 nM

O=C(c1ccc(C[C@@H]2CC[C@H]([C@H](O)c3ccccc3)N2)cc1)N1CCC2(CC1)C(=O)NCC2c1cccc(C(F)(F)F)c1 (some centres unmarked) [Example 264]
EC50 [1]: < 1 nM

O=C(c1ccc(CC2CCC(C(O)c3ccccc3)N2)cc1)N1CCC2(CC1)CC(C1CC1)OC2=O (single isomer, unassigned) [Ex. 554]
EC50 [5]: 1 to 9.9 nM

O=C(c1ccc(C[C@@H]2CC[C@H]([C@H](O)c3ccccc3)N2)cc1)N1CCC2(CC1)NCNC2=O [Example 258]
EC50 [1]: 10 to 99.9 nM

COC(=O)c1cc(OC2CCN(C(=O)c3ccc(C[C@@H]4CC[C@H]([C@H](O)c5ccccc5)N4)cc3)CC2)no1 [Example 159]
EC50 [3]: 100 to 999 nM

O=C(c1ccc(C[C@@H]2CC[C@H]([C@H](O)c3cccnc3)N2)cc1)N1CCC2c3ccccc3OC2C1 (some centres unmarked) [Example 57]
EC50 [2]: 1 to 9.9 nM

Cc1cncn1C1CCN(C(=O)c2ccc(C[C@@H]3CC[C@H]([C@H](O)c4ccccc4)N3)cc2)CC1 [Example 86]
EC50 [3]: 100 to 999 nM

O=C(c1ccc(C[C@@H]2CC[C@H]([C@H](O)c3cccnc3)N2)cc1)N1CCC(N2C(=O)OCc3ccccc32)CC1 [Example 71]
EC50 [3]: 1 to 9.9 nM

O=C(c1ccc(C[C@@H]2CC[C@H]([C@H](O)c3ccccc3)N2)cc1)N1CCC(c2nnnn2C2CC2)CC1 [Example 110]
EC50 [3]: < 1 nM

CC(C(=O)NCC1(O)CC1)N1CCN(C(=O)c2ccc(C[C@@H]3CC[C@H]([C@H](O)c4ccccc4)N3)cc2)CC1 (some centres unmarked) [Example 449]
EC50 [4]: 10 to 99.9 nM

O=C(c1ccc(C[C@@H]2CC[C@H]([C@H](O)c3ccccc3)N2)cc1)N1CCN(c2nsc3ccccc23)CC1 [Example 386]
EC50 [6]: 10 to 99.9 nM

C[C@H](c1ccccn1)N1CC2CCC1CN2C(=O)c1ccc(C[C@@H]2CC[C@H]([C@H](O)c3ccccc3)N2)cc1 (some centres unmarked) [Example 541]
EC50 [7]: 100 to 999 nM

O=C(c1ccc(C[C@@H]2CC[C@H]([C@H](O)c3ccccc3)N2)cc1)N1CCC(Cc2ccc(F)cc2)CC1 [Example 145]
EC50 [3]: 10 to 99.9 nM

O=C(c1ccc(C[C@@H]2CC[C@H]([C@H](O)c3ccccc3)N2)cc1)N1CCC(Cn2cccnc2=O)CC1 [Example 150]
EC50 [3]: 100 to 999 nM

O=C(c1ccc(C[C@@H]2CC[C@H]([C@H](O)c3ccccc3)N2)cc1)N1CC2CC1CN2c1nccs1 (some centres unmarked) [Example 544]
EC50 [7]: 999 to 3000 nM

O=C1OC2(CCN(C(=O)c3ccc(C[C@@H]4CC[C@H]([C@H](O)c5ccccc5)N4)cc3)CC2)c2cccnc21 [Example 286]
EC50 [1]: 10 to 99.9 nM

CC(C)Oc1cccnc1N1CCN(C(=O)c2ccc(C[C@@H]3CC[C@H]([C@H](O)c4ccccc4)N3)cc2)CC1 [Example 363]
EC50 [6]: 10 to 99.9 nM

O=C(c1ccc(C[C@@H]2CC[C@H]([C@H](O)c3ccccc3)N2)cc1)N1CCCC(c2nc3ccccc3o2)C1 (some centres unmarked) [Example 33]
EC50 [2]: 100 to 999 nM

O=C(c1ccc(C[C@@H]2CC[C@H]([C@H](O)c3ccccc3)N2)cc1)N1CCN(c2ncccc2O)CC1 [Example 360]
EC50 [6]: 10 to 99.9 nM

CCC1CC2(CCN(C(=O)c3ccc(CC4CCC(C(O)c5ccccc5)N4)cc3)CC2)C(=O)O1 (single isomer, unassigned) [Example 564]
EC50 [8]: 1 to 9.9 nM

O=C(c1ccc(CC2CCC(C(O)c3cccnc3)N2)cc1)N1CCC2(CC1)C(=O)NCC2c1ccc(F)cc1 (single isomer, unassigned) [Example 556]
EC50 [8]: 1 to 9.9 nM

Cc1nnnn1C1CCN(C(=O)c2ccc(C[C@@H]3CC[C@H]([C@H](O)c4ccccc4)N3)cc2)CC1 [Example 101]
EC50 [3]: 1 to 9.9 nM

O=C(c1ccc(C[C@@H]2CC[C@H]([C@H](O)c3ccccc3)N2)cc1)N1CCC(n2cnnn2)CC1 [Example 100]
EC50 [3]: 10 to 99.9 nM

CC(C1CCN(C(=O)c2ccc(C[C@@H]3CC[C@H]([C@H](O)c4ccccc4)N3)cc2)CC1)n1ncccc1=O (some centres unmarked) [Example 165]
EC50 [3]: 10 to 99.9 nM

COC(=O)c1ccccc1N1CCN(C(=O)c2ccc(C[C@@H]3CC[C@H]([C@H](O)c4ccccc4)N3)cc2)CC1 [Example 351]
EC50 [6]: 10 to 99.9 nM

CCS(=O)(=O)C1CCN(C(=O)c2ccc(C[C@@H]3CC[C@H]([C@H](O)c4ccccc4)N3)cc2)CC1 [Example 124]
EC50 [3]: 1 to 9.9 nM

CC(c1ccccn1)C1CCN(C(=O)c2ccc(C[C@@H]3CC[C@H]([C@H](O)c4ccccc4)N3)cc2)CC1 (some centres unmarked) [Example 164]
EC50 [3]: 10 to 99.9 nM

CC(C(=O)NCC(N)=O)N1CCN(C(=O)c2ccc(C[C@@H]3CC[C@H]([C@H](O)c4ccccc4)N3)cc2)CC1 (some centres unmarked) [Example 445]
EC50 [4]: 100 to 999 nM

CC1(C)CC2(CCN(C(=O)c3ccc(C[C@@H]4CC[C@H]([C@H](O)c5ccc[n+]([O-])c5)N4)cc3)CC2)C(=O)O1 [Example 295]
EC50 [1]: 100 to 999 nM

CC(C(=O)N1CCc2oncc2C1)N1CCN(C(=O)c2ccc(C[C@@H]3CC[C@H]([C@H](O)c4ccccc4)N3)cc2)CC1 (some centres unmarked) [Example 503]
EC50 [4]: 10 to 99.9 nM

O=C(c1ccc(C[C@@H]2CC[C@H]([C@H](O)c3ccccc3)N2)cc1)N1C2CCC1C1CCC2N1Cc1ccccn1 [Example 524, (R)-phenyl[(2R,5S)-5-(4-{[10-(pyridin-2-ylmethyl)-9,10-diazatricyclo[4.2.1.1^2,5]dec-9-yl]carbonyl}benzyl)pyrrolidin-2-yl]methanol]
EC50 [5]: 10 to 99.9 nM

O=C1C=C(c2ccccc2)C2(CCN(C(=O)c3ccc(C[C@@H]4CC[C@H]([C@H](O)c5ccccc5)N4)cc3)CC2)O1 [Example 281]
EC50 [1]: 1 to 9.9 nM

COc1ccc2c(c1)C(=O)CC1(CCCN(C(=O)c3ccc(C[C@@H]4CC[C@H]([C@H](O)c5ccccc5)N4)cc3)C1)O2 (some centres unmarked) [Example 43]
EC50 [2]: 10 to 99.9 nM

CC(c1ncccc1F)N1CCN(C(=O)c2ccc(C[C@@H]3CC[C@H]([C@H](O)c4ccccc4)N3)cc2)CC1 (some centres unmarked) [Example 425]
EC50 [6]: 10 to 99.9 nM

O=C(c1ccc(C[C@@H]2CC[C@H]([C@H](O)c3ccccc3)N2)cc1)N1CCC(F)(S(=O)(=O)c2ccc(F)cc2)CC1 [Example 240]
EC50 [1]: 10 to 99.9 nM

CC(c1ccccc1F)N1CCN(C(=O)c2ccc(CC3CCC(C(O)c4ccccc4)N3)cc2)CC1 (single isomer, unassigned) [Example 574]
EC50 [8]: 10 to 99.9 nM

CC(c1ncc2ccccc2n1)N1CCN(C(=O)c2ccc(C[C@@H]3CC[C@H]([C@H](O)c4ccccc4)N3)cc2)CC1 (mixture of isomers) [Example 572]
EC50 [8]: 1 to 9.9 nM

CC(C(=O)N1CCC(F)(F)C1)N1CCN(C(=O)c2ccc(C[C@@H]3CC[C@H]([C@H](O)c4ccccc4)N3)cc2)CC1 (stereo partly drawn) [Example 432, (R)-{(2R,5S)-5-[4-({4-{2-(3,3,-Difluoropyrrolidin-1-yl)-1-methyl-2-oxoethyl]piperazine-1-yl}carbonyl)benzyl}pyrrolidin-2-yl)(phenyl)methanol, TFA salt]
EC50 [5]: 10 to 99.9 nM

O=C(c1ccc(C[C@@H]2CC[C@H]([C@H](O)c3ccccc3)N2)cc1)N1CCC(Cn2cnccc2=O)CC1 [Example 149]
EC50 [3]: 100 to 999 nM

Cc1nonc1N1CCN(C(=O)c2ccc(C[C@@H]3CC[C@H]([C@H](O)c4ccccc4)N3)cc2)CC1 [Example 380]
EC50 [6]: 10 to 99.9 nM

CC(c1ncccc1Cl)N1CCN(C(=O)c2ccc(CC3CCC(C(O)c4ccccc4)N3)cc2)CC1 (single isomer, unassigned) [Example 594]
EC50 [8]: 1 to 9.9 nM

Cc1nonc1C1CCCN1C(=O)c1ccc(C[C@@H]2CC[C@H]([C@H](O)c3ccccc3)N2)cc1 (some centres unmarked) [Example 14]
EC50 [2]: 100 to 999 nM

O=C(c1ccc(C[C@@H]2CC[C@H]([C@H](O)c3ccccc3)N2)cc1)N1CCN(Cc2nc3ccccc3o2)CC1 [Example 403]
EC50 [6]: 1 to 9.9 nM

O=C(c1ccc(C[C@@H]2CC[C@H]([C@H](O)c3ccccc3)N2)c(Br)c1)N1CC2C(C1)C2n1cnnn1 (some centres unmarked) [Example 609]
EC50 (Table 13, human Beta-3 agonist functional activity given as range, read-out: Human β3 agonist functional activities): 1 to 9.9 nM

CC(C(=O)N1CC(O)(c2ccccc2)C1)N1CCN(C(=O)c2ccc(C[C@@H]3CC[C@H]([C@H](O)c4ccccc4)N3)cc2)CC1 (some centres unmarked) [Example 474]
EC50 [4]: 1 to 9.9 nM

CC(C)n1nnnc1CN1CCN(C(=O)c2ccc(C[C@@H]3CC[C@H]([C@H](O)c4ccccc4)N3)cc2)CC1 [Example 400]
EC50 [6]: 10 to 99.9 nM

O=C(c1ccc(C[C@@H]2CC[C@H]([C@H](O)c3ccccc3)N2)cc1)N1CCC(c2nc3ccccc3o2)CC1 [Example 78]
EC50 [3]: 100 to 999 nM

O=C(c1ccc(C[C@@H]2CC[C@H]([C@H](O)c3ccccc3)N2)cc1)N1CCC2(CC1)CC(c1ccc(F)cc1)CO2 (some centres unmarked) [Example 310]
EC50 [1]: 100 to 999 nM

CCOC(=O)C1CCCCN1C(=O)c1ccc(C[C@@H]2CC[C@H]([C@H](O)c3ccccc3)N2)cc1 (some centres unmarked) [Example 48]
EC50 [2]: 100 to 999 nM

O=C(c1ccc(CC2CCC(C(O)c3ccccc3)N2)cc1)N1CCN(C2CCN(c3ccccc3)C2=O)CC1 (single isomer, unassigned) [Example 606]
EC50 [8]: 10 to 99.9 nM

O=C(c1ccc(C[C@@H]2CC[C@H]([C@H](O)c3ccccc3)N2)cc1)N1CCC2(CCCNC2=O)CC1 [Example 256]
EC50 [1]: 100 to 999 nM
